Assay [1] concerns DANCE-specific protease. As to the kind of experiment: Inhibition of DANCE cleavage by protease inhibitors in transfected 293T cells. It is filed as cell-based. The conditions noted are these: 293T cells expressing human DANCE, serum-free medium with inhibitor, 48 hours; Western blotting with anti-FLAG M2. The protocol:
293T cells were used in expression experiments. Transfection was performed using the Lipofect AMINE Plus reagent as directed in the product instructions. 24 hours after transfection, the medium was exchanged with serum-free medium, and cultivation was continued for 48 hours; the resulting supernatant or cell lysate was used for Western blotting and in vitro binding assay.
A human DANCE cDNA with FLAG tag and 6×His tag added to the carboxyl terminus thereof was transfected to 293T cells; the cells were cultured using a serum-free medium comprising a cysteine protease inhibitor (E64) or serine protease inhibitor (aprotinin) for 48 hours; a recombinant protein was precipitated from the culture supernatant using Ni-NTA agarose and was developed by SDS-PAGE and Western blotting was performed using anti-FLAG M2 antibody.
For orientation: A western blot detects proteins with antibodies after separation by electrophoresis.

Assay [2] concerns DANCE-specific protease. As to the kind of experiment: Cleavage of mutated versus normal form of DANCE expressed in 293T cells. Format: cell-based, human. The conditions noted are these: Arg77 substituted with Ala, serum-free medium 48 hours, Western blotting with anti-FLAG M2. An excerpt:
The 77th amino acid of human DANCE, arginine, was substituted with alanine using the Quick Change in vitro mutagenesis kit (Stratagene). The other procedures were the same as pEF6-hDANCE-FLAG.
An expression vector for the mutated form of DANCE resulting from the substitution of the 77th arginine of DANCE with alanine (with C-terminal FLAG and 6×His tag) (FIG. 7), and an expression vector for normal form of DANCE (with C-terminal FLAG and 6×His tag) were transfected to 293T cells; the cells were cultured using serum-free medium for 48 hours; a recombinant protein was precipitated from the culture supernatant using Ni-NTA agarose, and developed by SDS-PAGE, and Western blotting was performed using anti-FLAG M2 antibody.

Assay [3] has as its system vascular endothelial cells. As to the kind of experiment: Vascular endothelial cell adhesion assay. The settings on record: purified recombinant protein used for coating. Format: cell-based. The text has this:
Full-length DANCE promotes the adhesion and extension of vascular endothelial cells via cell surface integrin. The present inventor has reported to date that full-length DANCE can serve as a ligand for the integrins αvβ3, αvβ5, and α9β1. Since the domain serving as the ligand is considered to be around the RGD motif of the amino-terminal domain of DANCE, each recombinant protein of a DANCE mutant wherein RGD was replaced with RGE for one-amino-acid substitution (RGE DANCE), and amino-terminal cleaved form of DANCE (ΔND DANCE) were purified, and these, along with full-length DANCE, were subjected to vascular endothelial cell adhesion assay (FIG. 13).

The results in this text go back to patent US7906616B2, “Truncated DANCE, DANCE complex and method of using these” (Kansai Medical University, priority 2004, dated 2011).

Regarding `CC(C)C[C@H](NC(=O)[C@H]1O[C@@H]1C(=O)O)C(=O)NCCCCN=C(N)N` [E64], the “inhibition of the cleavage of DANCE” value in the assay on DANCE-specific protease [1] is on record as “not inhibited”.

For aprotinin, the “inhibition of the cleavage of DANCE” value with DANCE-specific protease [1] is recorded as “inhibited”.

B1: mutated form of DANCE: mutated form of DANCE resulting from the substitution of the 77th arginine of DANCE with alanine (protein, UniProt Q9UBX5 24-448, looked up, variant R77A)
Fibulin-5: QAQCTNGFDLDRQSGQCLDIDECRTIPEACRGDMMCVNQNGGYLCIPRTNPVYAGPYSNPYSTPYSGPYPAAAPPLSAPNYPTISRPLICRFGYQMDESNQCVDVDECATDSHQCNPTQICINTEGGYTCSCTDGYWLLEGQCLDIDECRYGYCQQLCANVPGSYSCTCNPGFTLNEDGRSCQDVNECATENPCVQTCVNTYGSFICRCDPGYELEEDGVHCSDMDECSFSEFLCQHECVNQPGTYFCSCPPGYILLDDNRSCQDINECEHRNHTCNLQQTCYNLQGGFKCIDPIRCEEPYLRISDNRCMCPAENPGCRDQPFTILYRDMDVVSGRSVPADIFQMQATTRYPGAYYIFQIKSGNEGREFYMRQTGPISATLVMTRPIKGPREIQLDLEMITVNTVINFRGSSVIRLRIYVSQYPF
For the molecule B1, the “resistance to cleavage with a protease” value in the assay with DANCE-specific protease [2] was “exhibit resistance to cleavage with a protease”.

B2: RGE DANCE: DANCE mutant wherein RGD was replaced with RGE for one-amino-acid substitution (protein)
chain: QAQCTNGFDLDRQSGQCLDIDECRTIPEACRGEMMCVNQNGGYLCIPRTNPVYRGPYSNPYSTPYSGPYPAAAPPLSAPNYPTISRPLICRFGYQMDESNQCVDVDECATDSHQCNPTQICINTEGGYTCSCTDGYWLLEGQCLDIDECRYGYCQQLCANVPGSYSCTCNPGFTLNEDGRSCQDVNECATENPCVQTCVNTYGSFICRCDPGYELEEDGVHCSDMDECSFSEFLCQHECVNQPGTYFCSCPPGYILLDDNRSCQDINECEHRNHTCNLQQTCYNLQGGFKCIDPIRCEEPYLRISDNRCMCPAENPGCRDQPFTILYRDMDVVSGRSVPADIFQMQATTRYPGAYYIFQIKSGNEGREFYMRQTGPISATLVMTRPIKGPREIQLDLEMITVNTVINFRGSSVIRLRIYVSQYPF
modifications: left off: small tags and cut ends
notes: DANCE mutant wherein RGD was replaced with RGE for one-amino-acid substitution
Take B2: the cell adhesion activity result in assay [3] was “almost no cell adhesion activity”.
